Test results reported in PubChem BioAssay AID1259407 (Chemical Carcinogenesis Research Information System (CCRIS), 2018).
Calls of active or inactive are those of the source. The rule behind the calls is not given here.

Test system: CCRIS mutagenicity, Ames/micronucleus/aberration tests
Assay: CCRIS mutagenicity studies

SMILES: O=Cc1ccccc1
- mutagenic call (End Point: IN VITRO CHROMOSOMAL ABERRATIONS, Test System: CHINESE HAMSTER OVARY CELLS, Metabolic Activation: NONE): inactive; negative
- mutagenic call (End Point: IN VITRO CHROMOSOMAL ABERRATIONS, Test System: CHINESE HAMSTER OVARY CELLS, Metabolic Activation: RAT, LIVER, S-9, AROCLOR 1254): inactive; negative
- mutagenic call (End Point: In vitro chromosomal aberrations, Test System: Chinese hamster lung (CHL/IU) cells, Metabolic Activation: Rat, Liver, S9, Phenobarbital and 5,6-benzoflavone): inactive; negative. weak positive response for ploidy is not dose related.
- mutagenic call (Test System: AMES SALMONELLA TYPHIMURIUM, Strain/Indicator: TA97, Metabolic Activation: NONE, Method: PREINCUBATION): inactive; negative
- mutagenic call (Test System: AMES SALMONELLA TYPHIMURIUM, Strain/Indicator: TA97, Metabolic Activation: RAT, LIVER, S-9, AROCLOR 1254, Method: PREINCUBATION): inactive; negative
- mutagenic call (Test System: AMES SALMONELLA TYPHIMURIUM, Strain/Indicator: TA98, Metabolic Activation: HAMSTER, LIVER, S-9, AROCLOR 1254 (10%), Method: PREINCUBATION): inactive; negative
- mutagenic call (Test System: AMES SALMONELLA TYPHIMURIUM, Strain/Indicator: TA98, Metabolic Activation: NONE, Method: FLUCTUATION (MICROTITER)): inactive; negative
- mutagenic call (Test System: AMES SALMONELLA TYPHIMURIUM, Strain/Indicator: TA98, Metabolic Activation: NONE, Method: PREINCUBATION): inactive; negative
- mutagenic call (Test System: AMES SALMONELLA TYPHIMURIUM, Strain/Indicator: TA98, Metabolic Activation: RAT LIVER S-9, AROCLOR 1254, Method: FLUCTUATION (MICROTITER)): inactive; negative
- mutagenic call (Test System: AMES SALMONELLA TYPHIMURIUM, Strain/Indicator: TA98, Metabolic Activation: RAT LIVER S-9, PHENOBARBITAL AND BETA-NAPHTHOFLAVONE, Method: PREINCUBATION): inactive; negative
- mutagenic call (Test System: AMES SALMONELLA TYPHIMURIUM, Strain/Indicator: TA98, Metabolic Activation: RAT, LIVER, S-9, AROCLOR 1254 (10%), Method: PREINCUBATION): inactive; negative
- mutagenic call (Test System: AMES SALMONELLA TYPHIMURIUM, Strain/Indicator: TA100, Metabolic Activation: HAMSTER, LIVER, S-9, AROCLOR 1254 (10%), Method: PREINCUBATION): inactive; negative
- mutagenic call (Test System: AMES SALMONELLA TYPHIMURIUM, Strain/Indicator: TA100, Metabolic Activation: MOUSE, LIVER, S-9, AROCLOR 1254 (10%), Method: PREINCUBATION): inactive; negative
- mutagenic call (Test System: AMES SALMONELLA TYPHIMURIUM, Strain/Indicator: TA100, Metabolic Activation: RAT LIVER S-9, AROCLOR 1254, Method: PREINCUBATION): inactive; negative
- mutagenic call (Test System: AMES SALMONELLA TYPHIMURIUM, Strain/Indicator: TA100, Metabolic Activation: RAT LIVER S-9, PHENOBARBITAL AND BETA-NAPHTHOFLAVONE, Method: PREINCUBATION): inactive; negative
- mutagenic call (Test System: AMES SALMONELLA TYPHIMURIUM, Strain/Indicator: TA100, Metabolic Activation: RAT, LIVER, S-9, AROCLOR 1254 (10%), Method: PREINCUBATION): inactive; negative
- mutagenic call (Test System: AMES SALMONELLA TYPHIMURIUM, Strain/Indicator: TA102, Metabolic Activation: MOUSE, LIVER, S-9, AROCLOR 1254 (10%), Method: PREINCUBATION): inactive; negative
- mutagenic call (Test System: AMES SALMONELLA TYPHIMURIUM, Strain/Indicator: TA102, Metabolic Activation: NONE, Method: PREINCUBATION): inactive; negative
- mutagenic call (Test System: AMES SALMONELLA TYPHIMURIUM, Strain/Indicator: TA102, Metabolic Activation: RAT LIVER S-9, AROCLOR 1254, Method: PREINCUBATION): inactive; negative
- mutagenic call (Test System: AMES SALMONELLA TYPHIMURIUM, Strain/Indicator: TA102, Metabolic Activation: RAT, LIVER, S-9, AROCLOR 1254 (10%), Method: PREINCUBATION): inactive; negative
- mutagenic call (Test System: AMES SALMONELLA TYPHIMURIUM, Strain/Indicator: TA102, Metabolic Activation: RAT, LIVER, S-9, AROCLOR 1254, Method: PREINCUBATION): inactive; negative
- mutagenic call (Test System: AMES SALMONELLA TYPHIMURIUM, Strain/Indicator: TA104, Metabolic Activation: MOUSE, LIVER, S-9, AROCLOR 1254 (10%), Method: PREINCUBATION): inactive; negative
- mutagenic call (Test System: AMES SALMONELLA TYPHIMURIUM, Strain/Indicator: TA104, Metabolic Activation: NONE, Method: PREINCUBATION): inactive; negative
- mutagenic call (Test System: AMES SALMONELLA TYPHIMURIUM, Strain/Indicator: TA104, Metabolic Activation: RAT LIVER S-9, AROCLOR 1254, Method: PREINCUBATION): inactive; negative
- mutagenic call (Test System: AMES SALMONELLA TYPHIMURIUM, Strain/Indicator: TA104, Metabolic Activation: RAT, LIVER, S-9, AROCLOR 1254 (10%), Method: PREINCUBATION): inactive; negative
- mutagenic call (Test System: AMES SALMONELLA TYPHIMURIUM, Strain/Indicator: TA1535, Metabolic Activation: HAMSTER, LIVER, S-9, AROCLOR 1254 (10%), Method: PREINCUBATION): inactive; negative
- mutagenic call (Test System: AMES SALMONELLA TYPHIMURIUM, Strain/Indicator: TA1535, Metabolic Activation: NONE, Method: PREINCUBATION): inactive; negative
- mutagenic call (Test System: AMES SALMONELLA TYPHIMURIUM, Strain/Indicator: TA1535, Metabolic Activation: RAT LIVER S-9, PHENOBARBITAL AND BETA-NAPHTHOFLAVONE, Method: PREINCUBATION): inactive; negative
- mutagenic call (Test System: AMES SALMONELLA TYPHIMURIUM, Strain/Indicator: TA1535, Metabolic Activation: RAT, LIVER, S-9, AROCLOR 1254 (10%), Method: PREINCUBATION): inactive; negative
- mutagenic call (Test System: AMES SALMONELLA TYPHIMURIUM, Strain/Indicator: TA1537, Metabolic Activation: HAMSTER, LIVER, S-9, AROCLOR 1254 (10%), Method: PREINCUBATION): inactive; negative
- mutagenic call (Test System: AMES SALMONELLA TYPHIMURIUM, Strain/Indicator: TA1537, Metabolic Activation: NONE, Method: FLUCTUATION (MICROTITER)): inactive; negative
- mutagenic call (Test System: AMES SALMONELLA TYPHIMURIUM, Strain/Indicator: TA1537, Metabolic Activation: NONE, Method: PREINCUBATION): inactive; negative
- mutagenic call (Test System: AMES SALMONELLA TYPHIMURIUM, Strain/Indicator: TA1537, Metabolic Activation: RAT LIVER S-9, AROCLOR 1254, Method: FLUCTUATION (MICROTITER)): inactive; negative
- mutagenic call (Test System: AMES SALMONELLA TYPHIMURIUM, Strain/Indicator: TA1537, Metabolic Activation: RAT LIVER S-9, PHENOBARBITAL AND BETA-NAPHTHOFLAVONE, Method: PREINCUBATION): inactive; negative
- mutagenic call (Test System: AMES SALMONELLA TYPHIMURIUM, Strain/Indicator: TA1537, Metabolic Activation: RAT, LIVER, S-9, AROCLOR 1254 (10%), Method: PREINCUBATION): inactive; negative
- mutagenic call (Test System: AMES SALMONELLA TYPHIMURIUM, Strain/Indicator: TA7001, Metabolic Activation: NONE, Method: FLUCTUATION (MICROTITER)): inactive; negative
- mutagenic call (Test System: AMES SALMONELLA TYPHIMURIUM, Strain/Indicator: TA7001, Metabolic Activation: RAT LIVER S-9, AROCLOR 1254, Method: FLUCTUATION (MICROTITER)): inactive; negative
- mutagenic call (Test System: AMES SALMONELLA TYPHIMURIUM, Strain/Indicator: TA7002, Metabolic Activation: NONE, Method: FLUCTUATION (MICROTITER)): inactive; negative
- mutagenic call (Test System: AMES SALMONELLA TYPHIMURIUM, Strain/Indicator: TA7002, Metabolic Activation: RAT LIVER S-9, AROCLOR 1254, Method: FLUCTUATION (MICROTITER)): inactive; negative
- mutagenic call (Test System: AMES SALMONELLA TYPHIMURIUM, Strain/Indicator: TA7003, Metabolic Activation: NONE, Method: FLUCTUATION (MICROTITER)): inactive; negative
- mutagenic call (Test System: AMES SALMONELLA TYPHIMURIUM, Strain/Indicator: TA7003, Metabolic Activation: RAT LIVER S-9, AROCLOR 1254, Method: FLUCTUATION (MICROTITER)): inactive; negative
- mutagenic call (Test System: AMES SALMONELLA TYPHIMURIUM, Strain/Indicator: TA7004, Metabolic Activation: NONE, Method: FLUCTUATION (MICROTITER)): inactive; negative
- mutagenic call (Test System: AMES SALMONELLA TYPHIMURIUM, Strain/Indicator: TA7004, Metabolic Activation: RAT LIVER S-9, AROCLOR 1254, Method: FLUCTUATION (MICROTITER)): inactive; negative
- mutagenic call (Test System: AMES SALMONELLA TYPHIMURIUM, Strain/Indicator: TA7005, Metabolic Activation: NONE, Method: FLUCTUATION (MICROTITER)): inactive; negative
- mutagenic call (Test System: AMES SALMONELLA TYPHIMURIUM, Strain/Indicator: TA7005, Metabolic Activation: RAT LIVER S-9, AROCLOR 1254, Method: FLUCTUATION (MICROTITER)): active; positive
- mutagenic call (Test System: AMES SALMONELLA TYPHIMURIUM, Strain/Indicator: TA7006, Metabolic Activation: NONE, Method: FLUCTUATION (MICROTITER)): inactive; negative
- mutagenic call (Test System: AMES SALMONELLA TYPHIMURIUM, Strain/Indicator: TA7006, Metabolic Activation: RAT LIVER S-9, AROCLOR 1254, Method: FLUCTUATION (MICROTITER)): inactive; negative
- mutagenic call (Test System: E.COLI, Strain/Indicator: WP2UVRA/PKM101, Metabolic Activation: NONE, Method: PREINCUBATION): inactive; negative
- mutagenic call (Test System: E.COLI, Strain/Indicator: WP2UVRA/PKM101, Metabolic Activation: RAT LIVER S-9, PHENOBARBITAL AND BETA-NAPHTHOFLAVONE, Method: PREINCUBATION): inactive; negative
- mutagenic call (Test System: MOUSE LYMPHOMA, Strain/Indicator: L5178Y (TK+/TK-), Metabolic Activation: NONE, Method: SUSPENSION/PLATE): active; positive
